In paper PMC4406325 (MedChemComm, 2014):
Each block holds one compound with its values, some of them ahead of it.

How the values were obtained:
[1] = test system: KB (nasopharyngeal carcinoma); experiment: SRB cytotoxic activity assay, KB; type: cell-based, human; conditions: 3 days in culture, average of three independent measurements
[2] = test system: HIV-1 NL4-3; experiment: Anti-HIV-1 assay; type: cell-based; conditions: HIV-1 NL4-3, MT4 cells
[3] = target: CDK9/cyclin T1 (Homo sapiens, UniProt P50750); experiment: CDK9/Cyclin T1 kinase assay; type: biochemical; conditions: among all compounds tested at molecular level
CDK9/cyclin T1, sequence (P50750 whole entry): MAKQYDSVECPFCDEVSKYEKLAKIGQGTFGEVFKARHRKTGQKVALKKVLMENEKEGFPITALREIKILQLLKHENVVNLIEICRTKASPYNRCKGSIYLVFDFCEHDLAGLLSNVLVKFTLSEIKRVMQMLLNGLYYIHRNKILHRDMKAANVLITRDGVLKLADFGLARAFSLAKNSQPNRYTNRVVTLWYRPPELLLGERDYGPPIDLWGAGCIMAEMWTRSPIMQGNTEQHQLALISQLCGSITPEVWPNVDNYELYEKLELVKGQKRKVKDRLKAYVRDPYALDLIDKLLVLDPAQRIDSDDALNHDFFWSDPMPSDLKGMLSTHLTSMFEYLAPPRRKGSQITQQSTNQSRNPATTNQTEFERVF
CDK9/cyclin T1, sequence (O60563 whole entry partner): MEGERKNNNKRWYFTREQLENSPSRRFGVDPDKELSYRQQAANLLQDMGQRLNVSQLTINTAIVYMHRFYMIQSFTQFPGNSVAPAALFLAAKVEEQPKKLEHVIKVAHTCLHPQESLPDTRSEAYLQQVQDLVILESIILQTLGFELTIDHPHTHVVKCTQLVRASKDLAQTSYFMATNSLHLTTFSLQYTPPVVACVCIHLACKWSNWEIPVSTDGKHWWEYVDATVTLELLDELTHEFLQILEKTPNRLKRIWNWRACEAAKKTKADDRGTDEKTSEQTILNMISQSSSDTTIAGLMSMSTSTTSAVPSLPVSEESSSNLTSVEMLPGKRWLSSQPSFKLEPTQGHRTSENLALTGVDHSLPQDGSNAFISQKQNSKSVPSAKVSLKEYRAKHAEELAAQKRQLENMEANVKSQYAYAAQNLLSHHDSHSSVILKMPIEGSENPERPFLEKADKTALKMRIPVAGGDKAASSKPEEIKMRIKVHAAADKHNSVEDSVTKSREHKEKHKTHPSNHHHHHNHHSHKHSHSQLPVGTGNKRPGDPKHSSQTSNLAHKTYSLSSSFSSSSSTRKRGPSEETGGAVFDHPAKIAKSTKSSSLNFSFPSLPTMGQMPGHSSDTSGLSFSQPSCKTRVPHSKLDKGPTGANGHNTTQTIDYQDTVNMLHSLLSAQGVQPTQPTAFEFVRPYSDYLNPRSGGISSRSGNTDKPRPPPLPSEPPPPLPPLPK

Compound: O=C(Nc1ccccn1)c1cccc(Nc2ncc(F)c(Nc3ccc(F)cc3)n2)c1 [Compound 11n]
GI50 KB [1]: 20.03 ± 10.96 µM

Compound: O=C(Nc1cccc(Nc2ncc(F)c(Nc3ccc(F)cc3)n2)c1)c1ccccc1 [Compound 9a]
GI50 KB [1]: > 10 µM

Compound: O=C(c1cccc(Nc2ncc(F)c(Nc3ccc(F)cc3)n2)c1)N1CCOCC1 [Compound 11a]
GI50 KB [1]: 14.58 ± 2.93 µM

Compound: O=C(Nc1cc(Cl)cc(Cl)c1)c1cccc(Nc2ncc(F)c(Nc3ccc(F)cc3)n2)c1 [Compound 11m]
GI50 KB [1]: 20.08 ± 1.06 µM

Compound: CN1CCC(C(=O)Nc2cccc(Nc3ncc(F)c(Nc4ccc(F)cc4)n3)c2)CC1 [Compound 9f]
GI50 KB [1]: 1.70 ± 0.80 µM

Compound: COc1cc(NC(=O)c2cccc(Nc3ncc(F)c(Nc4ccc(F)cc4)n3)c2)cc(OC)c1 [Compound 11k]
GI50 KB [1]: 15.47 ± 1.58 µM

Compound: Fc1cnc(Nc2cccc(N3CCOCC3)c2)nc1Nc1ccc(Cl)c(Cl)c1 [Compound 6b]
GI50 KB [1]: > 10 µM

Compound: CS(=O)(=O)N1CCN(C(=O)c2cccc(Nc3ncc(F)c(Nc4ccc(F)cc4)n3)c2)CC1 [Compound 11d]
GI50 KB [1]: 20.29 ± 4.09 µM

Compound: CN(C)CC(=O)Nc1cccc(Nc2ncc(F)c(Nc3ccc(F)cc3)n2)c1 [Compound 9g]
GI50 KB [1]: 1.26 ± 0.05 µM

Compound: O=C(Nc1ccc(C(F)(F)F)cc1)c1cccc(Nc2ncc(F)c(Nc3ccc(F)cc3)n2)c1 [Compound 11h]
GI50 KB [1]: > 10 µM

Compound: COc1ccc(NC(=O)c2cccc(Nc3ncc(F)c(Nc4ccc(F)cc4)n3)c2)cc1 [Compound 11j]
GI50 KB [1]: > 10 µM

Compound: CC(=O)N1CCCN(C(=O)c2cccc(Nc3ncc(F)c(Nc4ccc(F)cc4)n3)c2)CC1 [Compound 11e]
inhibition in anti-HIV-1 assay (in words) [2]: Appreciable inhibition | GI50 KB [1]: 14.88 ± 2.20 µM

Compound: CN(C)CCNC(=O)c1cccc(Nc2ncc(F)c(Nc3ccc(F)cc3)n2)c1 [Compound 11f]
inhibition in anti-HIV-1 assay (in words) [2]: Appreciable inhibition | GI50 KB [1]: 4.16 ± 0.69 µM

Compound: Cn1ccnc1NC(=O)c1cccc(Nc2ncc(F)c(Nc3ccc(F)cc3)n2)c1 [Compound 11p]
GI50 KB [1]: 14.57 ± 1.70 µM

Compound: O=C(Nc1cccc(Nc2ncc(F)c(Nc3ccc(F)cc3)n2)c1)c1cnccn1 [Compound 9e]
GI50 KB [1]: 23.55 ± 3.92 µM

Compound: CN1CCN(C(=O)c2cccc(Nc3ncc(F)c(Nc4ccc(F)cc4)n3)c2)CC1 [Compound 11b]
GI50 KB [1]: 12.58 ± 3.05 µM

Compound: O=C(NCCO)c1cccc(Nc2ncc(F)c(Nc3ccc(F)cc3)n2)c1 [Compound 11g]
GI50 KB [1]: 12.39 ± 2.48 µM

Compound: Fc1cnc(Nc2cccc(N3CCOCC3)c2)nc1Nc1cc(Cl)cc(Cl)c1 [Compound 6a]
GI50 KB [1]: 14.80 ± 1.02 µM

Compound: O=C(Nc1ccc2c(c1)OCO2)c1cccc(Nc2ncc(F)c(Nc3ccc(F)cc3)n2)c1 [Compound 11l]
GI50 KB [1]: 14.08 ± 0.79 µM

Compound: COc1ccc(N2CCOCC2)cc1Nc1ncc(F)c(Nc2ccc(F)cc2)n1 [Compound 6e]
GI50 KB [1]: > 10 µM

Compound: Fc1ccc(Nc2nc(Nc3cccc(N4CCOCC4)c3)ncc2F)cc1 [Compound 6c]
GI50 KB [1]: > 10 µM

Compound: O=C(Nc1cccc(Nc2ncc(F)c(Nc3ccc(F)cc3)n2)c1)c1cccc([N+](=O)[O-])c1 [Compound 9b]
GI50 KB [1]: 15.10 ± 1.16 µM

Compound: CN(C)c1ccc(C(=O)Nc2cccc(Nc3ncc(F)c(Nc4ccc(F)cc4)n3)c2)cc1 [Compound 9c]
GI50 KB [1]: > 10 µM

Compound: COCC(=O)Nc1cccc(Nc2ncc(F)c(Nc3ccc(F)cc3)n2)c1 [Compound 9h]
GI50 KB [1]: 6.25 ± 1.38 µM

Compound: COc1ccc(N2CCN(C)CC2)cc1Nc1ncc(F)c(Nc2ccc(F)cc2)n1 [Compound 6f]
GI50 KB [1]: 0.96 ± 0.21 µM

Compound: O=C(Nc1nccs1)c1cccc(Nc2ncc(F)c(Nc3ccc(F)cc3)n2)c1 [Compound 11o]
GI50 KB [1]: > 10 µM

selectivity to CDK9 over CDK2 (in words) [3]: moderate selectivity to CDK9 over CDK2
Compound: O=C(Nc1cccc(Nc2ncc(F)c(Nc3ccc(F)cc3)n2)c1)c1ccncc1 [Compound 9d]
GI50 KB [1]: 5.28 ± 3.49 µM

selectivity to CDK9 over CDK2 (in words) [3]: moderate selectivity to CDK9 over CDK2
Compound: Fc1cnc(Nc2cccc(N3CCOCC3)c2)nc1Nc1c(F)cccc1F [Compound 6d]
inhibition in anti-HIV-1 assay (in words) [2]: Appreciable inhibition | GI50 KB [1]: > 10 µM

Compound: CN1CC[C@H](c2c(O)cc(O)c3c(=O)cc(-c4ccccc4Cl)oc23)[C@H](O)C1 [FVP, flavopiridol, reference compound]
GI50 KB [1]: 0.16 ± 0.007 µM

Compound: O=C(Nc1ccc(N2CCOCC2)cc1)c1cccc(Nc2ncc(F)c(Nc3ccc(F)cc3)n2)c1 [Compound 11i]
GI50 KB [1]: > 10 µM

Compound: O=C(c1cccc(Nc2ncc(F)c(Nc3ccc(F)cc3)n2)c1)N1CCCCC1 [Compound 11c]
GI50 KB [1]: 14.78 ± 2.53 µM
